Measurements reported in ChEMBL document CHEMBL1201862, “PubChem BioAssay data set” (2004).
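Tested at 5 concentrations; 48 h exposure; 96-well plates; endpoints linearly interpolated, else capped at highest concentration. GI50 is the concentration that inhibits growth by half.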 The source made the active and inactive calls. Rule as the data show it: active = GI50 up to about 1.1 µM and inactive = higher.

What was measured:
Experiment in all cases: NCI anticancer screen, dose series, 48 h
KM12 = tested on: KM12
SK-MEL-5 = tested on: SK-MEL-5
SR = tested on: SR
U-251 = tested on: U-251
NCI-H226 = tested on: NCI-H226
SF-539 = tested on: SF-539
RPMI-8226 = tested on: RPMI-8226
Malme-3M = tested on: Malme-3M
UACC-257 = tested on: UACC-257
NCI-H460 = tested on: NCI-H460
A549 = tested on: A549
SNB-75 = tested on: SNB-75
786-0 = tested on: 786-0
K562 = tested on: K562
SF-295 = tested on: SF-295
CAKI-1 = tested on: CAKI-1
HL-60 = tested on: HL-60
Hs-578T = tested on: Hs-578T
DU-145 = tested on: DU-145
HT-29 = tested on: HT-29

Measured: GI50

CCN(CC)CCCC(C)Nc1ccnc2cc3ccccc3cc12 (stereo unspecified)
inactive: KM12 4.95 µM | SK-MEL-5 19.8 µM | SR 3.75 µM | U-251 5.75 µM | NCI-H226 20.9 µM | SF-539 22.8 µM | RPMI-8226 13.5 µM | Malme-3M 19.7 µM | UACC-257 23.8 µM | NCI-H460 3.57 µM | A549 7.03 µM | SNB-75 6.95 µM | 786-0 8.41 µM | K562 7 µM | SF-295 5.82 µM | CAKI-1 9.2 µM | HL-60 10.7 µM | Hs-578T 36.5 µM | DU-145 > 100 µM

O=C(Nc1nc(C23CC4CC(CC(C4)C2)C3)cs1)c1cc2c(ccc3ccccc32)oc1=O
inactive: KM12 > 100 µM | SK-MEL-5 > 100 µM | SR > 100 µM | U-251 > 100 µM | NCI-H226 > 100 µM | SF-539 > 100 µM | RPMI-8226 > 100 µM | Malme-3M > 100 µM | UACC-257 > 100 µM | NCI-H460 > 100 µM | A549 > 100 µM | 786-0 > 100 µM | K562 > 100 µM | SF-295 > 100 µM | HT-29 > 100 µM | CAKI-1 > 100 µM | HL-60 > 100 µM | Hs-578T > 100 µM | DU-145 > 100 µM

COC(=O)CC(SCCO)SCCO
inactive: KM12 > 100 µM | SK-MEL-5 > 100 µM | SR > 100 µM | NCI-H226 > 100 µM | SF-539 > 100 µM | RPMI-8226 > 100 µM | Malme-3M > 100 µM | UACC-257 > 100 µM | NCI-H460 70.3 µM | A549 > 100 µM | SNB-75 75.7 µM | 786-0 > 100 µM | K562 > 100 µM | SF-295 > 100 µM | HT-29 > 100 µM | CAKI-1 > 100 µM | HL-60 > 100 µM | Hs-578T > 100 µM | DU-145 > 100 µM

CCOC(=O)c1csc(C(CSCc2ccc(OC)cc2)N2C(=O)c3ccccc3C2=O)n1 (stereo unspecified)
inactive: KM12 > 100 µM | SK-MEL-5 > 100 µM | SR 26.5 µM | U-251 > 100 µM | NCI-H226 > 100 µM | SF-539 > 100 µM | RPMI-8226 38 µM | Malme-3M > 100 µM | UACC-257 > 100 µM | NCI-H460 > 100 µM | A549 > 100 µM | 786-0 88.1 µM | K562 33.9 µM | SF-295 > 100 µM | HT-29 87.7 µM | CAKI-1 > 100 µM | HL-60 33.7 µM | Hs-578T > 100 µM | DU-145 > 100 µM

CC[N+]1(C)CCC(O)(c2ccc(C)cc2)C(C(=O)c2ccc(C)cc2)C1 (stereo unspecified)
inactive: KM12 > 100 µM | SK-MEL-5 > 100 µM | SR 16.2 µM | U-251 > 100 µM | NCI-H226 > 100 µM | SF-539 66.8 µM | RPMI-8226 10.9 µM | Malme-3M 26.1 µM | UACC-257 62.5 µM | NCI-H460 > 100 µM | A549 > 100 µM | 786-0 20.1 µM | K562 19.6 µM | SF-295 37.4 µM | HT-29 42.7 µM | CAKI-1 23.9 µM | HL-60 56.8 µM | Hs-578T > 100 µM | DU-145 > 100 µM

CC(C)(C)c1cc(C2NC(=O)NC2=O)cc(C(C)(C)C)c1O (stereo unspecified)
inactive: KM12 18.8 µM | SK-MEL-5 > 10 µM | SR 28.8 µM | U-251 39.5 µM | NCI-H226 > 100 µM | SF-539 > 100 µM | RPMI-8226 66.5 µM | Malme-3M 80 µM | A549 96.8 µM | SNB-75 29.4 µM | 786-0 > 10 µM | K562 33.9 µM | SF-295 64.4 µM | HT-29 46.5 µM | CAKI-1 > 100 µM | Hs-578T 20.5 µM | DU-145 > 100 µM

O=C(/C=C/c1ccc(O)c(O)c1)NC(CO)C(=O)O (stereo unspecified)
inactive: KM12 > 100 µM | SK-MEL-5 > 100 µM | SR > 100 µM | U-251 > 100 µM | NCI-H226 > 100 µM | SF-539 > 100 µM | RPMI-8226 > 100 µM | Malme-3M > 100 µM | UACC-257 > 100 µM | NCI-H460 > 100 µM | A549 > 100 µM | SNB-75 > 100 µM | 786-0 > 100 µM | K562 > 100 µM | SF-295 > 100 µM | HT-29 > 100 µM | CAKI-1 > 100 µM | Hs-578T > 100 µM | DU-145 > 100 µM
